The target of test [1] is kinase targets listed in tables 3 and 4 (Homo sapiens, UniProt Q9BXA7). The test is described as follows: biochemical.
Test [2] addresses kinase targets listed in tables 3 and 4 (Homo sapiens, UniProt Q13464). Description: biochemical.
The target in test [3] is kinase targets listed in tables 3 and 4 (Homo sapiens, UniProt Q9Y5S2). The test is described as follows: biochemical.
The target of test [4] is T1, ROCK1 (Homo sapiens (Human), UniProt Q13464). The test is described as follows: biochemical.
T1 sequence (Q13464 2-1354 limits assumed): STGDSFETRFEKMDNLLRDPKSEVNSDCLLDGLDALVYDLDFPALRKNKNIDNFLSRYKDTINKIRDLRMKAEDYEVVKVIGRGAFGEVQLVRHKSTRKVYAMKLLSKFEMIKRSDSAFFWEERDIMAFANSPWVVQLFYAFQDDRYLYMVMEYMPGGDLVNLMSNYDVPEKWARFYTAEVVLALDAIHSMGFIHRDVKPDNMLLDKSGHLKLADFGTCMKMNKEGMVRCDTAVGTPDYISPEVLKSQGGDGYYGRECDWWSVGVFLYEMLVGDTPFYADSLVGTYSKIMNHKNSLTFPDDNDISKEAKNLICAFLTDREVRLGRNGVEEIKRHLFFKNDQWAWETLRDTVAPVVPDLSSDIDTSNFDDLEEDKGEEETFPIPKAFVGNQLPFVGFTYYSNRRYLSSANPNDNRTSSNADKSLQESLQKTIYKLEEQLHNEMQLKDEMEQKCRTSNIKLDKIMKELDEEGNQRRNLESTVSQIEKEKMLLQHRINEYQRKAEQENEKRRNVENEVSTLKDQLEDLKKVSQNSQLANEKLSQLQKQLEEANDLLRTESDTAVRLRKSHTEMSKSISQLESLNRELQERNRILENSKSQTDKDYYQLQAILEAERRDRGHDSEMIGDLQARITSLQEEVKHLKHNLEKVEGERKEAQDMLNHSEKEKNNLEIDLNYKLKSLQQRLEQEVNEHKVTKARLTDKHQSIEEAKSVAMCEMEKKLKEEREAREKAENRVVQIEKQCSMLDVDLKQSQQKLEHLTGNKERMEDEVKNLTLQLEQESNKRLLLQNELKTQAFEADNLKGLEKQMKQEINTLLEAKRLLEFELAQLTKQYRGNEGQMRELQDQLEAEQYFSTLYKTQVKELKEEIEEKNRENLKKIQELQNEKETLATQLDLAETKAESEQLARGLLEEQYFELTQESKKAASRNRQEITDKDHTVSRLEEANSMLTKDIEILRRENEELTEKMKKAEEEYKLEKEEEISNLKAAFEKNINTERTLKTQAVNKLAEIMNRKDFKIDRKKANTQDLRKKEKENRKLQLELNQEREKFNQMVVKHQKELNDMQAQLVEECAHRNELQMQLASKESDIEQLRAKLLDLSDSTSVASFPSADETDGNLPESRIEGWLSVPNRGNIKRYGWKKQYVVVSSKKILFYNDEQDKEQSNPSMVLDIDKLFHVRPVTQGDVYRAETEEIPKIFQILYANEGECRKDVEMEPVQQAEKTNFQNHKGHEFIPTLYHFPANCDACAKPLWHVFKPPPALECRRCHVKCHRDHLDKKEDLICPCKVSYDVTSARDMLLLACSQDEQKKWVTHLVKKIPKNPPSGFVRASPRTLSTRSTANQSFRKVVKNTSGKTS
Description: MRCKα, MRCKβ, ROCK1 and ROCK2 assays were performed using an IMAP fluorescence polarization assay format (Molecular Devices Inc.). […] Typically, dose response analyses were performed over concentration ranges from 0.005-100 μM. […] After 30 min incubation to allow binding reagent to bind phosphorylated peptide, fluorescence polarization was measured on a Tecan Saphire^2 plate reader at excitation (470 nm) and emission (530 nm) wavelengths.
The target of test [5] is T2, MRCKβ (Homo sapiens (Human), UniProt Q9Y5S2). Description: MRCKβ cellular assay (pMLC T18/S19 immunoblot, MDA-MB-231 cells with doxycycline inducible kinase domain). The format is cell-based. The procedure:
(§1) MRCKβ, ROCK1 and ROCK2 Cellular Assays
(§2) MDA-MB-231 cells expressing doxycycline inducible ROCK1, ROCK2 or MRCKβ kinase domains were plated at 1.1×10^5 cells per well of a 12 well plate. After 24 hours, cells were treated with 1 μg/ml doxycycline for 18 hours to induce kinase domain expression and then tested over a suitable concentration range with compounds of the invention for 60 minutes. Cells were then washed with PBS and lysed with Tris-SDS lysis Buffer (50 mM Tris-HCl pH7.4, 0.5% (v/v) SDS, 1×PhosStop Inhibitors (04 906 837 001; Roche) and 1×Complete Protease Inhibitors (04 693 124 001; Roche)). Whole cell lysates were clarified by passing through QIAshredder spin columns, separated by SDS-PAGE, and quantitative immunoblotting performed using a LI-COR Odyssey IR scanner to determine pMLC (T18/S19) and α-Tubulin levels.
In general terms: In western blotting, separated proteins are transferred to a membrane and probed.

For the next test, the target named is ROCK2 (Homo sapiens (Human), UniProt O75116). The test is described as follows: ROCK2 kinase assay (IMAP fluorescence polarization). The class given is biochemical. (In general: Fluorescence polarisation rises when a labelled molecule tumbles more slowly, as on binding a larger partner.)
Chain of ROCK2 (O75116 whole entry): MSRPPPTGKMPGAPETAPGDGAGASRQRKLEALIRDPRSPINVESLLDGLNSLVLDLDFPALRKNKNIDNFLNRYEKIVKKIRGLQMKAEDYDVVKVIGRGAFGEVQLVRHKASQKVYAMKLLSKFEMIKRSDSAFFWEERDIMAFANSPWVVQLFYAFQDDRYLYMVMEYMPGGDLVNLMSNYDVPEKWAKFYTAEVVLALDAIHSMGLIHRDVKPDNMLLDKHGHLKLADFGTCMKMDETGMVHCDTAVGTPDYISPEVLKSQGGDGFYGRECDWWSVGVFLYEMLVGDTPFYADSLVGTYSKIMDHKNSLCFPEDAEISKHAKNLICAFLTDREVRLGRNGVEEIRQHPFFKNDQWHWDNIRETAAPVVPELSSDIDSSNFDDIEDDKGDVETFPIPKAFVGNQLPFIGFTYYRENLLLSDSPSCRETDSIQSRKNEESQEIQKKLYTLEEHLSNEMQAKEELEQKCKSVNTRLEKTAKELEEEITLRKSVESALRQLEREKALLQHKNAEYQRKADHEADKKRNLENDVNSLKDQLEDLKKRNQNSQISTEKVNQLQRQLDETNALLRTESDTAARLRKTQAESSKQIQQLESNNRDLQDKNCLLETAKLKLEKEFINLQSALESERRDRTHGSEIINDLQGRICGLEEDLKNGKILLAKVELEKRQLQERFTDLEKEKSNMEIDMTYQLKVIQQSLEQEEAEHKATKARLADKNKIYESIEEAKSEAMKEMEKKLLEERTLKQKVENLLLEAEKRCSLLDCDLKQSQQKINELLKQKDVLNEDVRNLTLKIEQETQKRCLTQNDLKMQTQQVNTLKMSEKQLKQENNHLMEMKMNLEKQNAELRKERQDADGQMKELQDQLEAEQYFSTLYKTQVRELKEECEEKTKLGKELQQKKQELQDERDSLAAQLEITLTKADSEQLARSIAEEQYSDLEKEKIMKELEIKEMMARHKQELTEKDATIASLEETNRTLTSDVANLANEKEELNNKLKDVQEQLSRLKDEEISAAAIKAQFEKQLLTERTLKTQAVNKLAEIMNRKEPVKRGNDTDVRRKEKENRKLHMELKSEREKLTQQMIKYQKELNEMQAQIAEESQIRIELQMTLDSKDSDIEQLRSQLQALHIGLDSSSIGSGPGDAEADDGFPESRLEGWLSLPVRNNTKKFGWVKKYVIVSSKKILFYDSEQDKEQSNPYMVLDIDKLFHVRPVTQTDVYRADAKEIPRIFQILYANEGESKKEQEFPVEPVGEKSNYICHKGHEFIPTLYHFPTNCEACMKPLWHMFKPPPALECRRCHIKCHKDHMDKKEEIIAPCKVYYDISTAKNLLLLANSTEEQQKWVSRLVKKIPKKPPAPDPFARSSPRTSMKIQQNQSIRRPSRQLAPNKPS
Test [6] deals with T2, MRCKβ. Description: MRCKβ kinase assay (IMAP fluorescence polarization). The class given is biochemical. From the text:
(§3) MRCKα, MRCKβ, ROCK1 and ROCK2 Kinase Assays

Test [7] deals with T1, ROCK1. The test is described as follows: ROCK1 cellular assay (pMLC T18/S19 immunoblot, MDA-MB-231 cells with doxycycline inducible kinase domain). The class given is cell-based. The procedure: as §1, §2
For the next test, the target named is MRCKα (Homo sapiens (Human), UniProt Q5VT25). Description: MRCKα kinase assay (IMAP fluorescence polarization). The class given is biochemical.
Chain of MRCKα (Q5VT25 whole entry): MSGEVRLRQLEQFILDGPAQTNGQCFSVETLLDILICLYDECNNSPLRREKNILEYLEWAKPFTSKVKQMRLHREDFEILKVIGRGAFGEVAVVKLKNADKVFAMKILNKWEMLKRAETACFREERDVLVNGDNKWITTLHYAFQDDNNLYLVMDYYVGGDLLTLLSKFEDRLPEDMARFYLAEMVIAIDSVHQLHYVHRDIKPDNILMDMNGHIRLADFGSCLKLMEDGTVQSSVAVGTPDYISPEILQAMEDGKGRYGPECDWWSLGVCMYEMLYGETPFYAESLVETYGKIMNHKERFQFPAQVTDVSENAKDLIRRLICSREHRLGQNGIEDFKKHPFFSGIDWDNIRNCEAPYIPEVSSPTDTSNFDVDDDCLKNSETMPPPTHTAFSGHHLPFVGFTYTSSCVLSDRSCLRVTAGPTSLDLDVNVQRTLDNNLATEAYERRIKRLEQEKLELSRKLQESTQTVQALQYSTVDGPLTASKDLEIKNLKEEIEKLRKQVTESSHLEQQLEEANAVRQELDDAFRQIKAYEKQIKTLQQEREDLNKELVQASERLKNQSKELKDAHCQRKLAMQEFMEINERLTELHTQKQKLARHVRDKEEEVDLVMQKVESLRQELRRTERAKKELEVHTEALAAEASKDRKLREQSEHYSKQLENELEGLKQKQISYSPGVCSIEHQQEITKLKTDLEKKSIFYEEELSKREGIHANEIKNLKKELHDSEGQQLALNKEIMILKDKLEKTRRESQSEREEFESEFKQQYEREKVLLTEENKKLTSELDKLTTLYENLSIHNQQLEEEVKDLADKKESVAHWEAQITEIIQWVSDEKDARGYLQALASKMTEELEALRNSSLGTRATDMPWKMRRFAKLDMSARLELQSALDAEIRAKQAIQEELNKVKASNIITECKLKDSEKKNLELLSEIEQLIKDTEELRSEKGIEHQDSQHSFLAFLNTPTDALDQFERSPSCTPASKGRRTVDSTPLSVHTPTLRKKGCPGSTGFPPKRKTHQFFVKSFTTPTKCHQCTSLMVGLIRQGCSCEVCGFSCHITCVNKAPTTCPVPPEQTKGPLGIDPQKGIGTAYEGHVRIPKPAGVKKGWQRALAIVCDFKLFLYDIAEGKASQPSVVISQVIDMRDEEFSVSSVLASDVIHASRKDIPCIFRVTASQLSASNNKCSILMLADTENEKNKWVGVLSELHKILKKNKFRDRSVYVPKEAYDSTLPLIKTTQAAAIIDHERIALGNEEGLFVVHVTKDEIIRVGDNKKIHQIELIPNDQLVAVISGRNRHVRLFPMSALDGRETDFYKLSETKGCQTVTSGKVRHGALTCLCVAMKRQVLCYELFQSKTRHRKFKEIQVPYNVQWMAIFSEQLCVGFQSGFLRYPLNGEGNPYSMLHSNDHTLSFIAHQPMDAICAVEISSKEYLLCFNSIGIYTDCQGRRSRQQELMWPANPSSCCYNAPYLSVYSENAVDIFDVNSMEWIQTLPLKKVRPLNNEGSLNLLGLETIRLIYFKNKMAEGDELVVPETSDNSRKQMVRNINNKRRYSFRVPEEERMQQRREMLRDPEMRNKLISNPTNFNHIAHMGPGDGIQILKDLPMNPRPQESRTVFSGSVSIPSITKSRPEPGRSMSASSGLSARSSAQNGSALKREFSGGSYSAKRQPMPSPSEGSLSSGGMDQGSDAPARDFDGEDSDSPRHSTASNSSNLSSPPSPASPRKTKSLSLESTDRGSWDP
Source text: as §3

The mark [8] stands for this setting: MDA-MB-231 cells, doxycycline inducible kinase domain, 60 minutes, pMLC (T18/S19), read-out: Cellular assay - MRCK-b inhibition MEAN.
Setting [9] is: 1 μM ATP, read-out: ROCK2 Average Ki.
Where [10] appears, read: 1 μM ATP, read-out: MRCK-B Average Ki.
The mark [11] stands for this setting: MDA-MB-231 cells, doxycycline inducible kinase domain, 60 minutes, pMLC (T18/S19), read-out: Cellular assay - ROCK1 inhibition MEAN.
[12] abbreviates: 1 μM ATP, read-out: MRCK-a Average Ki.

pIC50, pKi: −log10 of the molar value. Like-named read-outs stand apart in the source and are kept apart here. Some results are limits rather than exact numbers.

Chain of kinase targets listed in tables 3 and 4 (Homo sapiens, UniProt Q13464) (Q13464 2-1354 limits assumed): as the sequence (Q13464 2-1354 limits assumed) above
Chain of kinase targets listed in tables 3 and 4 (Homo sapiens, UniProt Q9BXA7) (Q9BXA7 whole entry, looked up): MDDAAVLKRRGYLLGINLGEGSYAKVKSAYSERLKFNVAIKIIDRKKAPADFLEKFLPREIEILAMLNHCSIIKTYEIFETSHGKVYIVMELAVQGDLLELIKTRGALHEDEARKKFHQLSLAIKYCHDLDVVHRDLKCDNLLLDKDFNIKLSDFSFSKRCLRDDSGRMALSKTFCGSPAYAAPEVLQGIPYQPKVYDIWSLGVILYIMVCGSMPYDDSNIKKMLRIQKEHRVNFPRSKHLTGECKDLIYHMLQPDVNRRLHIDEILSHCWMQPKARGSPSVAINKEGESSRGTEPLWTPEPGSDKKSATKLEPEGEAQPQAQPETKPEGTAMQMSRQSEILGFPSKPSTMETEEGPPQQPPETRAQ

Turning to `c1csc(-c2c[nH]c3nccc(N4CCC[C@@]5(CCCCN5)C4)c23)n1` [Example E150, 2-[4-[(6S)-1,8-diazaspiro[5.5]undecan-8-yl]-1H-pyrrolo[2,3-b]pyridin-3-yl]thiazole], the pIC50 in test [1] was 5.36; in [2], 6.39; in [3] it was 8.16; at MRCKβ [5] (setting [8]), 7.37; on ROCK1 [7] (setting [11]), < 4.52. The pKi (as a rule, the negative decadic logarithm of the Ki, by convention in mol/L) in test [1] was 5.69; in test [2], 6.60; in test [3], 8.94; at ROCK1 [4] it was 7.25; on ROCK2 (setting [9]), 7.66; at MRCKβ [6] (setting [10]) it was 10.61. Moreover, the negative logarithm of the Ki (pKi) on MRCKα (setting [12]) is 10.48.

`CCN1CCCCC12CCCN(c1ccnc3[nH]cc(-c4nccs4)c13)C2` (stereo not drawn) [Example E209, 2-[4-(1-ethyl-1,8-diazaspiro[5.5]undecan-8-yl)-1H-pyrrolo[2,3-b]pyridin-3-yl]thiazole]: the pKi was 6.90 on ROCK1 [4], 7.52 on ROCK2 (setting [9]), 10.41 at MRCKβ [6] (setting [10]) and 10.00 on MRCKα (setting [12]). Besides, the pIC50 on MRCKβ [5] (setting [8]) is 6.96; at ROCK1 [7] (setting [11]) it was < 4.52.

`c1cc(N2CCCC3(CCCCN3)C2)c2c(-c3ncsn3)c[nH]c2n1` (stereo not drawn) [Example E236, 3-[4-[1,8-diazaspiro[5.5]undecan-8-yl]-1H-pyrrolo[2,3-b]pyridin-3-yl]-1,2,4-thiadiazole]: the pKi at ROCK1 [4] is 6.41; on ROCK2 (setting [9]), 6.98; on MRCKβ [6] (setting [10]) it was 10.05; on MRCKα (setting [12]), 10.02. For the same compound, the pIC50 was 6.84 at MRCKβ [5] (setting [8]) and < 4.52 at ROCK1 [7] (setting [11]).

Take `Cc1csnc1-c1c[nH]c2nccc(N3CCCC4(CCCCN4)C3)c12` (stereo not drawn) [Example E142, 3-[4-(1,8-diazaspiro[5.5]undecan-8-yl)-1H-pyrrolo[2,3-b]pyridin-3-yl]-4-methyl-isothiazole]: the pKi is 6.98 on ROCK1 [4], 4.47 on ROCK2 (setting [9]), 9.69 on MRCKβ [6] (setting [10]) and 9.67 on MRCKα (setting [12]). The pIC50 was 5.92 at MRCKβ [5] (setting [8]) and < 4.52 on ROCK1 [7] (setting [11]).

Regarding `Cc1cnc(-c2c[nH]c3nccc(N4CC[C@@]5(CCCCN5)C4)c23)s1` [Example E131, 2-[4-[(5S)-2,6-diazaspiro[4.5]decan-2-yl]-1H-pyrrolo[2,3-b]pyridin-3-yl]-5-methyl-thiazole], the pKi was 6.97 at ROCK1 [4], 7.60 at ROCK2 (setting [9]), 10.22 at MRCKβ [6] (setting [10]) and 10.68 on MRCKα (setting [12]). Besides, the pIC50 on MRCKβ [5] (setting [8]) was 6.50; at ROCK1 [7] (setting [11]), < 4.52.

Consider `CCN1CCCCC12CCCN(c1ccnc3[nH]cc(-c4ncc(C)s4)c13)C2` (stereo not drawn) [Example E210, 2-[4-(1-ethyl-1,8-diazaspiro[5.5]undecan-8-yl)-1H-pyrrolo[2,3-b]pyridin-3-yl]-5-methyl-thiazole], for which the pKi at ROCK1 [4] was 4.30; on ROCK2 (setting [9]), 6.82; at MRCKβ [6] (setting [10]), 10.20; at MRCKα (setting [12]), 9.90. In addition, the pIC50 is 6.15 on MRCKβ [5] (setting [8]) and < 4.52 on ROCK1 [7] (setting [11]).

Regarding `c1cc(N2CCC3(CCCN3)C2)c2c(-c3ccsn3)c[nH]c2n1` (stereo not drawn) [Example E136, 3-[4-(1,7-diazaspiro[4.4]nonan-7-yl)-1H-pyrrolo[2,3-b]pyridin-3-yl]isothiazole], the pKi on ROCK1 [4] is 7.15; at ROCK2 it was 7.85; on MRCKβ [6] it was 9.92; at MRCKα, 9.68. Further, the values for the pIC50 on MRCKβ [5] and on ROCK1 [7] were 6.34 and < 4.52, respectively.

In the case of `Cc1cnc(-c2c[nH]c3nccc(N4CCC[C@@]5(CCCCN5)C4)c23)s1` [Example E146, 2-[4-[(6S)-1,8-diazaspiro[5.5]undecan-8-yl]-1H-pyrrolo[2,3-b]pyridin-3-yl]-5-methyl-thiazole], the pKi was 6.69 at ROCK1 [4], 7.00 at ROCK2 (setting [9]), 10.27 on MRCKβ [6] (setting [10]) and 10.31 at MRCKα (setting [12]). For the same compound, the figures for the pIC50 on MRCKβ [5] (setting [8]) and on ROCK1 [7] (setting [11]) were 6.82 and < 4.52, respectively.
